Laboratory results reported in patent US20240391870A1 (Arcturus Therapeutics, Inc., priority 2023, published 2024).

Key:
Mouse plasma stability = format: in vitro ADME, CD-1 mouse; conditions: 1 uM lipid
Procedure: Lipid stock solution was prepared by dissolution of the lipid in isopropanol at the concentration of 5 mg/mL. A requisite volume of the lipid-isopropanol solution was then diluted to 100 μM concentration at a total volume of 1.0 mL with in 50:50 (v/v) ethanol/water. Ten microliters of this 100 μM solution was spiked into 1.0 mL of mouse plasma (BioIVT, Cat. No.: MSE00PLNHUNN, CD-1 mouse, anticoagulant: sodium heparin, not filtered) that was pre-warmed to 37° C. and was stirred at 50 rpm with a magnetic stir bar. The starting concentration of lipids in plasma was thus 1 μM. At time points 0, 15, 30, 45, 60 and 120 min, 0.1 mL of the plasma was withdrawn from the reaction mixture and the protein was precipitated by adding 0.9 mL of ice-cold 4:1 (v/v) acetonitrile/methanol with 1 μg/mL of a selected internal standard lipid added. After filtration through a 0.45 micron 96-well filtering plate, the filtrates were analyzed by LC-MS (Thermo Fisher's Vanquish UHPLC—LTQ XL linear ion trap Mass Spectrometer); Waters XBridge BEH Shield RP18 2.5 micron (2.1×100 mm) column with its matching guard column. Mobile phase A was 0.1% formic acid in water, and mobile phase B was 0.1% formic acid in 1:1 (v/v) acetonitrile/methanol. Flow rate was 0.5 ml/min. Elution gradient was: Time 0-1 min: 10% B; 1-6 min: 10%-95% B; 6-8.5 min: 95% B; 8.5-9 min: 95%-10% B; 9-10 min: 10% B. Mass spectrometry was in positive scanning mode from 600-1100 m/z. The peak of the molecular ion of the lipids was integrated in the extracted ion chromatography (XIC) using Xcalibur software (Thermo Fisher). The relative peak area compared to T=0, after normalization by the peak area of the internal standard, was used as the percentage of the lipid remaining at each time point. T1/2 values were calculated using the first-order decay model.

[1] = Measured pKa in the indicated formulation; conditions: for pKa: EPO: measured in EPO formulation; for pKa: FVII: measured in FVII formulation
Procedure: Measured pKa values were determined based on the pH measured in the indicated formulation (i.e., EPO or FVII formulation).

[2] = In vivo biodegradability assay (lipid in liver); conditions: mouse liver, 48 h
hEPO = hEPO mRNA expression evaluation (hEPO-LNPs); format: in vivo, Balb/c mice; conditions: serum hEPO after 6 hr; for EPO exprssn (ng/mL) 0.03 mpk: 0.03 mpk i.v.; for EPO exprssn (ng/mL) 0.1 mpk: 0.1 mpk i.v.
Procedure: Protocol for hEPO mRNA Expression Evaluation
Lipid formulations comprising a hEPO mRNA below were evaluated for their ability to express hEPO in vivo according to the protocol of this example. All animal experiments were conducted using institutionally-approved protocols (IACUC). In this protocol, female Balb/c mice at least 6-8 weeks of age were purchased from Charles River Laboratory. […] After 6 hr, blood was collected with serum separation tubes, and the serum was isolated by centrifugation. Serum hEPO levels were then measured using an ELISA assay (Human Erythropoietin Quantikine IVD ELISA Kit, R&D Systems, Minneapolis, MD).

factor VII = experiment: Factor VII knock down evaluation (LNP with FVII siRNA); format: in vivo, Balb/C mice; conditions: plasma FVII after 48 h vs saline control; for FVII KD % 0.01 mpk: 0.01 mpk i.v.; for FVII KD % 0.03 mpk: 0.03 mpk i.v.
Procedure: Lipid formulations comprising a FVII siRNA further described below were evaluated for their knockdown activity using the protocol of this example. In the FVII evaluation, seven to eight week-old, female Balb/C mice were purchased from Charles River Laboratories (Hollister, CA). The mice were held in a pathogen-free environment and all procedures involving the mice were performed in accordance with guidelines established by the Institutional Animal Care and Use Committee (IACUC). Lipid nanoparticles containing factor VII siRNA were administered intravenously at a dosing volume of 10 mL/kg and two dose levels (0.03 and 0.01 mg/kg). After 48 h, the mice were anesthetized with isoflurane and blood was collected retro-orbitally into Microtainer® tubes coated with 0.109 M sodium citrate buffer (BD Biosciences, San Diego, CA) and processed to plasma. Plasma specimens were tested for factor VII levels immediately or stored at −80° C. for later analysis. Measurement of FVII protein in plasma was determined using the colorimetric Biophen VII assay kit (Aniara Diagnostica, USA). Absorbance was measured at 405 nm and a calibration curve was generated using the serially diluted control plasma to determine levels of factor VII in plasma from treated animals, relative to the saline-treated control animals.

Percent remaining in mouse plasma after 2 h (Mouse plasma stability; Table 1, mouse plasma 37 C)	Percent remaining in mouse plasma after 2 h (Mouse plasma stability; Table 2, mouse plasma 37 C)	pKa ([1]; EPO formulation)	pKa ([1]; FVII formulation)	pKa: EPO ([1]; Table 2)	pKa: FVII ([1]; Table 2)	In vivo degradability (ng/tissue) at 48h 0.03 mpk ([2]; Table 1)	In vivo degradability (ng/tissue) at 48h 0.1 mpk ([2]; Table 1)	In vivo degradability (ng/tissue) at 48h 0.03 mpk ([2]; Table 2)	In vivo degradability (ng/tissue) at 48h 0.1 mpk ([2]; Table 2)	SMILES	EPO exprssn (ng/mL) 0.03 mpk (hEPO; Table 1)	EPO exprssn (ng/mL) 0.1 mpk (hEPO; Table 1)	EPO exprssn (ng/mL) 0.03 mpk (hEPO; Table 2)	EPO exprssn (ng/mL) 0.1 mpk (hEPO; Table 2)	FVII KD % 0.01 mpk (factor VII; Table 1)	FVII KD % 0.03 mpk (factor VII; Table 1)	FVII KD % 0.01 mpk (factor VII; Table 2)	FVII KD % 0.03 mpk (factor VII; Table 2)	pKa: EPO ([1]; Table 1)
15%	15%	6.41	6.49	6.41	6.49	BLOQ	BLOQ	BLOQ	BLOQ	CCCCCCCCC(=O)OCC(COC(=O)CCCCCCCC)OC(=O)CCCC(CCCC(=O)OC(COC(=O)CCCCCCCC)COC(=O)CCCCCCCC)OC(=O)CCCN(C)C.Cl [LIPID 3, bis(1,3-bis(Nonanoyloxy)propan-2-yl) 5-((4-(dimethylamino)butanoyl)oxy)nonanedioate HCl Salt]	191 ng/mL	471 ng/mL	191 ng/mL	471 ng/mL	51%	87%	51%	87%	–
13%	13%	6.22	–	(6.22/ND)	–	BLOQ	BLOQ	BLOQ	BLOQ	CCCCCCCC(=O)OCC(COC(=O)CCCCCCC)OC(=O)CCCC(CCCC(=O)OC(COC(=O)CCCCCCC)COC(=O)CCCCCCC)SC(=O)CCCN(C)C [LIPID 4, bis(1,3-bis(Octanoyloxy)propan-2-yl) 5-((4-(dimethylamino)butanoyl)thio)nonanedioate]	392 ng/mL	1108 ng/mL	392 ng/mL	1108 ng/mL	71%	33%	71%	33%	–
81%	81%	6.5	–	(6.50/ND)	–	BLOQ	BLOQ	BLOQ	BLOQ	CCCCCCCCC(=O)OCC(COC(=O)CCCCCCCC)OC(=O)CN(CC(=O)OC(COC(=O)CCCCCCCC)COC(=O)CCCCCCCC)C(=O)SCCCN(C)C [LIPID 8, ((2,2′-((((3-(Dimethylamino)propyl)thio)carbonyl)azanediyl)bis(acetyl))bis(oxy))bis(propane-2,1,3-triyl)tetranonanoate]	169 ng/mL	701 ng/mL	169 ng/mL	701 ng/mL	–	–	–	–	–
256%	100%	6.57	6.45	6.57	6.45	<340 ng/tissue	<340 ng/tissue	<340 ng/tissue	<340 ng/tissue	CC1CCC(CC(=O)OCC(COC(=O)CC2CCC(C)CC2)OC(=O)CCCN(CCCC(=O)OC(COC(=O)CC2CCC(C)CC2)COC(=O)CC2CCC(C)CC2)C(=O)SCCCN(C)C)CC1 (stereo not drawn) [LIPID 15, ((4,4′-((((3-(Dimethylamino)propyl)thio)carbonyl)azanediyl)bis(butanoyl))bis(oxy))bis(propane-2,1,3-triyl)tetrakis(2-(4-methylcyclohexyl)acetate)]	–	–	–	1899 ng/mL	–	–	66.8%	89.7%	–
100%	100%	6.44	6.49	6.44	6.49	<340 ng/tissue	639 ng/tissue	<340 ng/tissue	639 ng/tissue	CCCCCCC(C)C(=O)OCC(COC(=O)C(C)CCCCCC)OC(=O)CCCN(CCCC(=O)OC(COC(=O)C(C)CCCCCC)COC(=O)C(C)CCCCCC)C(=O)SCCCN(C)C (stereo not drawn) [LIPID 18, ((4,4′-((((3-(Dimethylamino)propyl)thio)carbonyl)azanediyl)bis(butanoyl))bis(oxy))bis(propane-2,1,3-triyl)tetrakis(2-methyloctanoate)]	–	1081 ng/mL	–	1081 ng/mL	60%	88%	60%	88%	–
–	100%	6.27	–	(6.27/ND)	–	<340 ng/tissue	847 ng/tissue	<340 ng/tissue	847 ng/tissue	CCCCCC(C)(C)C(=O)OCC(COC(=O)C(C)(C)CCCCC)OC(=O)CCCN(CCCC(=O)OC(COC(=O)C(C)(C)CCCCC)COC(=O)C(C)(C)CCCCC)C(=O)SCCCN(C)C [LIPID 19, ((4,4′-((((3-(Dimethylamino)propyl)thio)carbonyl)-azanediyl)bis(butanoyl))bis(oxy))bis(propane-2,1,3-triyl)tetrakis(2,2-dimethylheptanoate)]	–	–	–	958 ng/mL	–	–	–	–	–

SMILES	Percent remaining in mouse plasma after 2 h (Mouse plasma stability; Table 1, mouse plasma 37 C)	Percent remaining in mouse plasma after 2 h (Mouse plasma stability; Table 2, mouse plasma 37 C)	pKa ([1]; EPO formulation)	pKa ([1]; FVII formulation)	pKa: EPO ([1]; Table 2)	pKa: FVII ([1]; Table 2)	In vivo degradability (ng/tissue) at 48h 0.03 mpk ([2]; Table 1)	In vivo degradability (ng/tissue) at 48h 0.1 mpk ([2]; Table 1)	In vivo degradability (ng/tissue) at 48h 0.03 mpk ([2]; Table 2)	In vivo degradability (ng/tissue) at 48h 0.1 mpk ([2]; Table 2)	EPO exprssn (ng/mL) 0.03 mpk (hEPO; Table 1)	EPO exprssn (ng/mL) 0.1 mpk (hEPO; Table 1)	EPO exprssn (ng/mL) 0.03 mpk (hEPO; Table 2)	EPO exprssn (ng/mL) 0.1 mpk (hEPO; Table 2)	FVII KD % 0.01 mpk (factor VII; Table 1)	FVII KD % 0.03 mpk (factor VII; Table 1)	FVII KD % 0.01 mpk (factor VII; Table 2)	FVII KD % 0.03 mpk (factor VII; Table 2)	pKa: EPO ([1]; Table 1)
CC(CC1CCCCC1)C(=O)OCC(COC(=O)C(C)CC1CCCCC1)OC(=O)CCCN(CCCC(=O)OC(COC(=O)C(C)CC1CCCCC1)COC(=O)C(C)CC1CCCCC1)C(=O)SCCCN(C)C (stereo not drawn) [LIPID 17, ((4,4′-((((3-(Dimethylamino)propyl)thio)carbonyl)azanediyl)bis(butanoyl))bis(oxy))bis(propane-2,1,3-triyl)tetrakis(3-cyclohexyl-2-methylpropanoate)]	–	100%	6.35	6.35	–	(6.35/6.35)	BLOQ	BLOQ	BLOQ	BLOQ	1082 ng/mL	1555 ng/mL	–	1082 ng/mL	55%	81%	55%	81%	(6.35/
